Assay results reported in US9694016B2 (Novartis AG, priority 2013, dated 2017).

What follows are compounds tested against b-Raf (V600E) (Homo sapiens (Human), UniProt P15056, V600E). Settings: read-out: b-Raf IC-50; AlphaScreen, 60 min pre-incubation, reaction 3 hours at room temperature.
b-Raf (V600E), sequence (P15056 whole entry V600E): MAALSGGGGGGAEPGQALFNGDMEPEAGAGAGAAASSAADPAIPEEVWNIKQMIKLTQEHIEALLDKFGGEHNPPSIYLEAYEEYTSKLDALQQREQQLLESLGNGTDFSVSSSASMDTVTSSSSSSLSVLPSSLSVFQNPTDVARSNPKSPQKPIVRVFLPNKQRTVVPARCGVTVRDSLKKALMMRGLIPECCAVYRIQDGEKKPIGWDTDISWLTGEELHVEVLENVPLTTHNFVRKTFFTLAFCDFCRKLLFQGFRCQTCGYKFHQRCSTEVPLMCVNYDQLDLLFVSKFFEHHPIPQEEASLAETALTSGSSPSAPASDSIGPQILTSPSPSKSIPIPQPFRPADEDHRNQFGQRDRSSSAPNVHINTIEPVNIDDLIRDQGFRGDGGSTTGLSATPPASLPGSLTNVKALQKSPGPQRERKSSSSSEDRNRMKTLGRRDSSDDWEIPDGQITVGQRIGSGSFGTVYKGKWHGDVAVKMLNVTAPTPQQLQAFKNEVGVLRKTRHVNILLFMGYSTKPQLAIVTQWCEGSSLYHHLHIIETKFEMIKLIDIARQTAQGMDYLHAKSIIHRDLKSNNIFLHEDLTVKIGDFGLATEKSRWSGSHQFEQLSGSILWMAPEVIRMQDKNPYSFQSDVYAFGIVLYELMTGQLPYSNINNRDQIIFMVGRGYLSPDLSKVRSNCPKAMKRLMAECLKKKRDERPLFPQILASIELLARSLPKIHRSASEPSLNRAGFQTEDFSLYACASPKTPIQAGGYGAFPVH

| Compound | IC50 [nM] |
| --- | --- |
| Cc1ccc(NC(=O)c2ccnc(C(C)(C)C#N)c2)cc1-c1nc2c(c(N3CCOCC3)n1)CNC2 [Example 866, 2-(2-cyanopropan-2-yl)-N-(4-methyl-3-(4-morpholino-6,7-dihydro-5H-pyrrolo[3,4-d]pyrimidin-2-yl)phenyl)isonicotinamide] | 7.6 |
| Cc1ncc(NC(=O)c2ccnc(C(C)(C)O)c2)cc1-c1cc(N2CCOCC2)c2nccn2n1 [Example 870, 2-(2-hydroxypropan-2-yl)-N-(6-methyl-5-(8-morpholinoimidazo[1,2-b]pyridazin-6-yl)pyridin-3-yl)isonicotinamide] | 7.5 |
| Cc1ncc(NC(=O)c2ccc(C#N)c(C(F)(F)F)c2)cc1-c1cc(N2CCOCC2)c2nccn2c1 [Example 877, 4-cyano-N-(6-methyl-5-(8-morpholinoimidazo[1,2-a]pyridin-6-yl)pyridin-3-yl)-3-(trifluoromethyl)benzamide] | 6.5 |
| Cc1ncc(NC(=O)c2ccnc(C(C)(C)O)c2)cc1-c1cc(N2CCOCC2)c2nccn2c1 [Example 878, 2-(2-hydroxypropan-2-yl)-N-(6-methyl-5-(8-morpholinoimidazo[1,2-a]pyridin-6-yl)pyridin-3-yl)isonicotinamide] | 100 |
| Cc1ncc(NC(=O)c2ccnc(C(C)(F)F)c2)cc1-c1cc(N2CCOCC2)c2nccn2c1 [Example 879, 2-(1,1-difluoroethyl)-N-(6-methyl-5-(8-morpholinoimidazo[1,2-a]pyridin-6-yl)pyridin-3-yl)isonicotinamide] | 6.1 |
| Cc1ncc(NC(=O)c2cccc(C(F)F)c2)cc1-c1cc(N2CCOCC2)c2nccn2c1 [Example 880, 3-(difluoromethyl)-N-(6-methyl-5-(8-morpholinoimidazo[1,2-a]pyridin-6-yl)pyridin-3-yl)benzamide] | 3.2 |
| Cc1ncc(NC(=O)c2ccnc(C(C)(C)C#N)c2)cc1-c1cc(N2CCOCC2)c2nccn2c1 [Example 881, 2-(2-cyanopropan-2-yl)-N-(6-methyl-5-(8-morpholinoimidazo[1,2-a]pyridin-6-yl)pyridin-3-yl)isonicotinamide] | 32.6 |
| Cc1ncc(NC(=O)c2ccnc(C(C)C)c2)cc1-c1cc(N2CCOCC2)c2nccn2c1 [Example 882, 2-isopropyl-N-(6-methyl-5-(8-morpholinoimidazo[1,2-a]pyridin-6-yl)pyridin-3-yl)isonicotinamide] | 8.1 |
| Cc1ncc(NC(=O)c2cccc(C(F)(F)F)c2)cc1-c1cc(N2CCOCC2)c2nccn2c1 [Example 884, N-(6-methyl-5-(8-morpholinoimidazo[1,2-a]pyridin-6-yl)pyridin-3-yl)-3-(trifluoromethyl)benzamide] | 19.7 |
| Cc1ncc(NC(=O)c2cccc(C(F)(F)F)c2)cc1-c1nc2c(c(N3CCOCC3)n1)CS(=O)(=O)C2 [Example 886, N-(6-methyl-5-(4-morpholino-6,6-dioxido-5,7-dihydrothieno[3,4-d]pyrimidin-2-yl)pyridin-3-yl)-3-(trifluoromethyl)benzamide] | 7.6 |
| Cc1c(-c2nc3c(c(N4CCOCC4)n2)CS(=O)(=O)C3)cc(NC(=O)c2cccc(C(F)(F)F)c2)c[n+]1[O-] [Example 887, 2-methyl-3-(4-morpholino-6,6-dioxido-5,7-dihydrothieno[3,4-d]pyrimidin-2-yl)-5-(3-(trifluoromethyl)benzamido)pyridine 1-oxide] | 1300 |
| Cc1ccc(C(=O)Nc2cccc(C(F)(F)F)c2)cc1-c1nc2c(c(N3CCOCC3)n1)CNC2 [Example 889, 4-methyl-3-(4-morpholino-6,7-dihydro-5H-pyrrolo[3,4-d]pyrimidin-2-yl)-N-(3-(trifluoromethyl)phenyl)benzamide] | 3.3 |
| Cc1ccc(NC(=O)c2cc(C(C)(C)C#N)ccn2)cc1-c1cc(N2CCOCC2)n(C)c(=O)c1 [Example 900, 4-(2-cyanopropan-2-yl)-N-(4-methyl-3-(1-methyl-6-morpholino-2-oxo-1,2-dihydropyridin-4-yl)phenyl)picolinamide] | 3.17 |
| Cc1ccc(NC(=O)c2cnnc(C3(C#N)CC3)c2)cc1-c1cc(N2CCOCC2)c(=O)n(C)c1 [Example 902, 6-(1-cyanocyclopropyl)-N-(4-methyl-3-(1-methyl-5-morpholino-6-oxo-1,6-dihydropyridin-3-yl)phenyl)pyridazine-4-carboxamide] | 3.37 |
| Cc1ccc(NC(=O)c2cc(C(C)(C)C#N)ccn2)cc1-c1cc(N2CCOCC2)c(=O)n(C)c1 [Example 903, 4-(2-cyanopropan-2-yl)-N-(4-methyl-3-(1-methyl-5-morpholino-6-oxo-1,6-dihydropyridin-3-yl)phenyl)picolinamide] | 3.64 |
| Cc1ccc(NC(=O)c2cc(C(C)(C)O)ccn2)cc1-c1cc(N2CCOCC2)c(=O)n(C)c1 [Example 906, 4-(2-hydroxypropan-2-yl)-N-(4-methyl-3-(1-methyl-5-morpholino-6-oxo-1,6-dihydropyridin-3-yl)phenyl)picolinamide] | 9.45 |
| Cc1ccc(NC(=O)c2cc(C(C)(C)F)ccn2)cc1-c1cc(N2CCOCC2)c(=O)n(C)c1 [Example 907, 4-(2-fluoropropan-2-yl)-N-(4-methyl-3-(1-methyl-5-morpholino-6-oxo-1,6-dihydropyridin-3-yl)phenyl)picolinamide] | 4.43 |
| Cc1ccc(NC(=O)c2cc(C(C)(C)C#N)ccn2)cc1-c1cc(N2CCOCC2)c(=O)n(C)n1 [Example 910, 4-(2-cyanopropan-2-yl)-N-(4-methyl-3-(1-methyl-5-morpholino-6-oxo-1,6-dihydropyridazin-3-yl)phenyl)picolinamide] | 5.09 |
| Cc1ncc(NC(=O)c2ccnc(C(C)(C)F)c2)cc1-c1cc(N2CCOCC2)c(OC(C)C)nn1 [Example 911, 2-(2-fluoropropan-2-yl)-N-(5-(6-isopropoxy-5-morpholinopyridazin-3-yl)-6-methylpyridin-3-yl)isonicotinamide] | 3.58 |

Stronger by IC50, values ahead:

| IC50 [nM] | Compound |
| --- | --- |
| 2.8 | Cc1ncc(NC(=O)c2ccc(C(O)CO)c(C(F)(F)F)c2)cc1-c1cc(N2CCOCC2)c2nccn2n1 (stereo not drawn) [Example 873, 4-(1,2-dihydroxyethyl)-N-(6-methyl-5-(8-morpholinoimidazo[1,2-b]pyridazin-6-yl)pyridin-3-yl)-3-(trifluoromethyl)benzamide] |
| 2.33 | Cc1ccc(NC(=O)c2cc(C(C)(F)F)ccn2)cc1-c1cc(N2CCOCC2)c(=O)n(C)c1 [Example 905, 4-(1,1-difluoroethyl)-N-(4-methyl-3-(1-methyl-5-morpholino-6-oxo-1,6-dihydropyridin-3-yl)phenyl)picolinamide] |
| 2.25 | Cc1ncc(NC(=O)c2ccnc(C(C)(F)F)c2)cc1-c1cc(N2CCOCC2)c(OC(C)C)nn1 [Example 912, 2-(1,1-difluoroethyl)-N-(5-(6-isopropoxy-5-morpholinopyridazin-3-yl)-6-methylpyridin-3-yl)isonicotinamide] |
| 2.16 | Cc1ncc(NC(=O)c2ccnc(C(F)F)c2)cc1-c1cc(N2CCOCC2)c(OC(C)C)nn1 [Example 913, 2-(difluoromethyl)-N-(5-(6-isopropoxy-5-morpholinopyridazin-3-yl)-6-methylpyridin-3-yl)isonicotinamide] |
| 2.01 | Cc1ccc(NC(=O)c2cncc(C(F)(F)F)c2)cc1-c1cc(N2CCOCC2)c(=O)n(C)c1 [Example 904, N-(4-methyl-3-(1-methyl-5-morpholino-6-oxo-1,6-dihydropyridin-3-yl)phenyl)-5-(trifluoromethyl)nicotinamide] |
| 1.87 | Cc1ccc(NC(=O)c2cnnc(C3(C#N)CC3)c2)cc1-c1cc(N2CCOCC2)n(C)c(=O)c1 [Example 899, 6-(1-cyanocyclopropyl)-N-(4-methyl-3-(1-methyl-6-morpholino-2-oxo-1,2-dihydropyridin-4-yl)phenyl)pyridazine-4-carboxamide] |
| 1.7 | Cc1ncc(NC(=O)c2cccc(C(F)(F)F)c2)cc1-c1cc(N2CCOCC2)c2nccn2c1 [Example 883, N-(6-methyl-5-(8-morpholinoimidazo[1,2-a]pyridin-6-yl)pyridin-3-yl)-3-(trifluoromethyl)benzamide] |
| 1.6 | Cc1ccc(C(=O)Nc2cccc(C(F)(F)F)c2)cc1-c1cc(N2CCOCC2)c2nccn2n1 [Example 888, 4-methyl-3-(8-morpholinoimidazo[1,2-b]pyridazin-6-yl)-N-(3-(trifluoromethyl)phenyl)benzamide] |
| 1.56 | Cc1ccc(NC(=O)c2cncc(C(F)(F)F)c2)cc1-c1cc(N2CCOCC2)c(=O)n(C)n1 [Example 909, N-(4-methyl-3-(1-methyl-5-morpholino-6-oxo-1,6-dihydropyridazin-3-yl)phenyl)-5-(trifluoromethyl)nicotinamide] |
| 1.4 | Cc1ncc(NC(=O)c2cccc(C(F)(F)F)c2)cc1-c1cc(N2CCOCC2)c2nccn2n1 [Example 867, N-(6-methyl-5-(8-morpholinoimidazo[1,2-b]pyridazin-6-yl)pyridin-3-yl)-3-(trifluoromethyl)benzamide] |
| 1.3 | Cc1ncc(NC(=O)c2cc(C(F)(F)F)ccn2)cc1-c1cc(N2CCOCC2)c2nccn2n1 [Example 868, N-(6-methyl-5-(8-morpholinoimidazo[1,2-b]pyridazin-6-yl)pyridin-3-yl)-4-(trifluoromethyl)picolinamide] |
| 1.3 | Cc1ncc(NC(=O)c2ccnc(C(C)C)c2)cc1-c1cc(N2CCOCC2)c2nccn2n1 [Example 869, 2-isopropyl-N-(6-methyl-5-(8-morpholinoimidazo[1,2-b]pyridazin-6-yl)pyridin-3-yl)isonicotinamide] |
| 0.85 | Cc1ccc(NC(=O)c2cncc(C(F)(F)F)c2)cc1-c1cc(N2CCOCC2)n(C)c(=O)c1 [Example 901, N-(4-methyl-3-(1-methyl-6-morpholino-2-oxo-1,2-dihydropyridin-4-yl)phenyl)-5-(trifluoromethyl)nicotinamide] |
| 0.6 | Cc1ncc(NC(=O)c2ccnc(C(C)(F)F)c2)cc1-c1cc(N2CCOCC2)c2nccn2n1 [Example 871, 2-(1,1-difluoroethyl)-N-(6-methyl-5-(8-morpholinoimidazo[1,2-b]pyridazin-6-yl)pyridin-3-yl)isonicotinamide] |
